According to patent US5792920A, “Plants with altered ability to synthesize starch and process for obtaining them” (Imperial Chemical Industries PLC, priority 1988, dated 1998):
Read-outs that look alike come from different tables or passages of the source. Values belong to the molecule of their own block, whether it stands above or below them.

How the values were obtained:
[1] = target: T1, wheat endosperm ADP-glucose pyrophosphorylase (Triticum aestivum, UniProt P12299+P30523)
T1 sequence (P12299 63-522): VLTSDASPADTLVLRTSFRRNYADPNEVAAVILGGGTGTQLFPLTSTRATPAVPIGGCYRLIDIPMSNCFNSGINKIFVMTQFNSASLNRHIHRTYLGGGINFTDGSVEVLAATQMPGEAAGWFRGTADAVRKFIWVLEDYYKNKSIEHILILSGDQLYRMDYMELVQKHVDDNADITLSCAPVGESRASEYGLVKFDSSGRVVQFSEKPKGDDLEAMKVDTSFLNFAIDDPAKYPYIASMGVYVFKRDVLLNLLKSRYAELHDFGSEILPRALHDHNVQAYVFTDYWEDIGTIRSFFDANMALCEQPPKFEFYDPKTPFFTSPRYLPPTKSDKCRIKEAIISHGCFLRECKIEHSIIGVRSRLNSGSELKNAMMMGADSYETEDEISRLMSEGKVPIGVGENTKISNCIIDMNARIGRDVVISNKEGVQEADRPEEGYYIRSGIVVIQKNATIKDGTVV
T1 sequence (P30523 1-473): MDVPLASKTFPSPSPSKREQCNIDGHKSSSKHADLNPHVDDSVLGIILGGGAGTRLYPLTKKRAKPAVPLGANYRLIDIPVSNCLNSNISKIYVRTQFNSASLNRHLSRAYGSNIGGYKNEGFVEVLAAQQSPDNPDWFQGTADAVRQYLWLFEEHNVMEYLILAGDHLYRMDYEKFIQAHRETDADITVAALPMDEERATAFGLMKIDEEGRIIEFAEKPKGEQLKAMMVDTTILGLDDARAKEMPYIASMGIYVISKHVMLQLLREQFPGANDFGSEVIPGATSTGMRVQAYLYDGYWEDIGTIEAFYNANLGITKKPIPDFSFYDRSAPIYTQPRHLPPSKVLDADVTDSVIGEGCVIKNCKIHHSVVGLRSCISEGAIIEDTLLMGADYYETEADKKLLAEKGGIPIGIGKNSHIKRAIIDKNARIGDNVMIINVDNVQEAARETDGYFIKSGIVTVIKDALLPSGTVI

[2] = system: plant leaf ADP-glucose pyrophosphorylase; conditions: cited from earlier work; for activation in vitro: all plant leaf enzymes studied
[3] = target: T1, wheat endosperm ADP-glucose pyrophosphorylase; assay: Screen of 3-phosphoglycerate analogues for antagonism of phosphate inhibition; assay type: biochemical; set-up: Partially-purified wheat endosperm ADP-glucose pyrophosphorylase; from tissue; host or cells: wheat endosperm; conditions: compound 3 mM, 1 mM phosphate
Description: There is clear evidence that the wheat endosperm enzyme has allosteric properties by virtue of being inhibited by phosphate and the inhibition being partially relieved by 3-phosphoglycerate. […] A careful analysis of various chemical that were chemically very closely related to 3-phosphoglycerate was carried out.
Seventeen compounds were tested at 3 mM concentration for their ability to antagonise the inhibition of the enzyme by 1 mM phosphate. The first series of compounds tested were phosphonate analogues of 3-phosphoglycerate. […] The second series tested were derivatives bearing structural similarity to 3-phosphoglycerate. Of these, only one compound gave weak alleviation of phosphate inhibition.

[4] = target: T2, ADP-glucose pyrophosphorylase enzyme from rice endosperm (Oryza sativa subsp. japonica, UniProt P15280+Q7G065); conditions: 5 mM 3-phosphoglycerate; cited from earlier work
T2 construct: host or cells: rice endosperm
T2 sequence (P15280 1-479 isoform P15280-2): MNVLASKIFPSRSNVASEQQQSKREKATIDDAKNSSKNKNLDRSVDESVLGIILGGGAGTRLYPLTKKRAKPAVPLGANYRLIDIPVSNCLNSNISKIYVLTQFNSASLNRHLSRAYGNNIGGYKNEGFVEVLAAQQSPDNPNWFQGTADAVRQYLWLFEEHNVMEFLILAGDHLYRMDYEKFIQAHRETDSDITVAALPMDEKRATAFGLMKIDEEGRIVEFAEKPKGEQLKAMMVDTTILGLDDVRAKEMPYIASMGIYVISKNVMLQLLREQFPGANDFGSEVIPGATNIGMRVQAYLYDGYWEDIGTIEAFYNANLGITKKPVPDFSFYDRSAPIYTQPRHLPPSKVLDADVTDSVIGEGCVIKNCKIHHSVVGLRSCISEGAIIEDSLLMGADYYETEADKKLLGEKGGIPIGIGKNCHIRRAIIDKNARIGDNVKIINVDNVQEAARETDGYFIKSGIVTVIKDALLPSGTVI
T2 sequence (Q7G065 1-518): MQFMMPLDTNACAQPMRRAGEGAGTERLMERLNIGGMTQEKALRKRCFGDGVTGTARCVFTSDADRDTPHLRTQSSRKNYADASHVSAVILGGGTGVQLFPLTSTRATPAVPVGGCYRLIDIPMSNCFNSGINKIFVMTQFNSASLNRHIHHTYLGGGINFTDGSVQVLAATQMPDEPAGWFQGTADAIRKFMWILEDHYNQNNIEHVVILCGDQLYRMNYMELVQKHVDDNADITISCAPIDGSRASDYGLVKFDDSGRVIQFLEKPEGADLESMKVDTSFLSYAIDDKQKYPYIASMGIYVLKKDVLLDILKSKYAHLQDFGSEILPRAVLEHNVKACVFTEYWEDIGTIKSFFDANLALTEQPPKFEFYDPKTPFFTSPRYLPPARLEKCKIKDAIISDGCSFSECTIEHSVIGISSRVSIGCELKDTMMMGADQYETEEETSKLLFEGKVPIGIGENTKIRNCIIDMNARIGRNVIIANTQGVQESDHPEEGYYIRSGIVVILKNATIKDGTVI

[5] = target: T3, wheat leaf ADP-glucose pyrophosphorylase (Triticum aestivum, UniProt P12298); assay: biochemical; conditions: read-out: fold activation of enzyme
T3 sequence (P12298 1-301): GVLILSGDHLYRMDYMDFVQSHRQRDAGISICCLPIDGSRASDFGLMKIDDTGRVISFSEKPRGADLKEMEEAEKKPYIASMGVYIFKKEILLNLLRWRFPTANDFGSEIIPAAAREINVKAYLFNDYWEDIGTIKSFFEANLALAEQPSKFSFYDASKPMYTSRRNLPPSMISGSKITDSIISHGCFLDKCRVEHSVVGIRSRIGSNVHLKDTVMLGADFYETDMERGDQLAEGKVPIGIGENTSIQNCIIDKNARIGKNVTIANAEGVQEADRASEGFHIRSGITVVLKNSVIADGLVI
T3 sequence (P30523 2-473 partner): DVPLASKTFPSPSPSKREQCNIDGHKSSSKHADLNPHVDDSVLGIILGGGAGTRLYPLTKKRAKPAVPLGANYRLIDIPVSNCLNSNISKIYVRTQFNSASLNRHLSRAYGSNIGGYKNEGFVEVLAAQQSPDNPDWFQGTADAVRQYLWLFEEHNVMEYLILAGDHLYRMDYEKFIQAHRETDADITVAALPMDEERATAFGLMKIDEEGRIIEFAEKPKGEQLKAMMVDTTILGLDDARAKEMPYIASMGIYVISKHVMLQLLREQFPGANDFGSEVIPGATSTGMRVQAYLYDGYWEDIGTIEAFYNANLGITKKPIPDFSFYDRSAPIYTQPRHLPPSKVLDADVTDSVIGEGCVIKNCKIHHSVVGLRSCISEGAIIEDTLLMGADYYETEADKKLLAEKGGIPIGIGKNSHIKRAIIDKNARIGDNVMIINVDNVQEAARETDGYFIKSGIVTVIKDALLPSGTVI

[6] = target: T3, wheat leaf ADP-glucose pyrophosphorylase; conditions: read-out: concentration required to achieve half-maximal inhibition of enzyme activity

Compound: O=C(COP(=O)(O)O)[C@@H](O)[C@H](O)[C@H](O)COP(=O)(O)O [fructose-1,6-bisphosphate]
activation of enzyme by fructose-1,6-bisphosphate ([1]; wheat endosperm enzyme): lack of detectable activation | activation in vitro [2]: to a lesser extent

Compound: O=C(O)CC(CP(=O)(O)O)C(=O)O (centres unmarked) [phosphonomethyl-butanedioic acid]
antagonism of inhibition of the enzyme by phosphate [3]: weak antagonism of phosphate inhibition

fold induction at 100 µM [5]: 14.5 | fold induction at 1000 µM [5]: 10
Compound: O=C(O)C(O)COP(=O)(O)O (centres unmarked) [3-phosphoglycerate]
fold activation in vitro [4]: 1,2 fold

alleviation of phosphate inhibition ([1]; wheat endosperm enzyme): weakly alleviates phosphate inhibition
Compound: O=C(CO)[C@@H](O)[C@H](O)[C@H](O)COP(=O)(O)O [Fructose-6-phosphate, fructose-6-phosphate]
activation in vitro [2]: to a lesser extent

Compound: O=P(O)(O)O [orthophosphate]
IC50 ([1]; read-out: I0.5 value for orthophosphate, in the presence of 1 mM 3-phosphoglycerate): 1500 µM | IC50 ([1]; read-out: concentration required to achieve half-maximal inhibition of enzyme activity, wheat endosperm enzyme): 700 µM | IC50 [6]: 56 µM | IC50 ([2]; enzymes from plant leaves, in vitro, read-out: orthophosphate concentration for half-maximal inhibition of enzyme activity): < 100 µM

Compound: C=C(OP(=O)(O)O)C(=O)O [phosphoenol pyruvate]
activation in vitro [2]: to a lesser extent

Compound: O=S(=O)(O)O [Sulphate]
antagonism of inhibition of the enzyme by phosphate [3]: antagonised phosphate inhibition
